Measured values published in US11702409B2, “Pyrazolyl derivatives useful as anti-cancer agents” (NOVARTIS AG, priority 2019, dated 2023).
Read-outs that look alike come from different tables or passages of the source.

What was measured:
KRasG12C = KRasG12C (Homo sapiens (Human), UniProt P01116, G12C); assay: MS-based assay (% modification for a range of compound concentrations and time points); assay type: biochemical; conditions: internally determined, non-labeled ligand; read-out: (kinact/KI)probe, second order rate constant for modification of KRasG12C
[1] = target: KRasG12C (M1-K169, biotinylated on the N-terminus) (Homo sapiens (Human), UniProt P01116, G12C); assay: Covalent competition assay (scintillation proximity assay, competition with radiolabeled covalent probe Compound B); assay type: binding
Method in brief: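 Biotinylated KRasG12C (M1-K169):GDP incubated 2 h with agitation with serially diluted compounds premixed with a fixed concentration of radiolabeled covalent probe; scintillation proximity read-out of competition for covalent modification. Buffer 20 mM Tris-HCl pH 7.5, 150 mM NaCl, 0.1 mM MgCl2, 0.01% Tween-20. IC50 from 4-parameter fit.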

[2] = in vitro KRASG12C activity, 10 nM KRasG12C:GDP, 25 nM radio-ligand and 475 nM unlabelled ligand, incubated 2 hours, read-out: Covalent Competition Assay IC50

Row | Compound | kinact/KI (KRasG12C) [M⁻¹ s⁻¹] | IC50 ([1]; covalent competition SPA assay, KRASG12C, read-out: IC50, titration of the non-labelled version of the probe) [nM] | IC50 [1, 2] [nM]
1 | C=CC(=O)Nc1ccc(-n2c(C)c(-c3c(C)ccc4[nH]ncc34)c3cccnc32)c(F)c1 [Compound A, N-(3-fluoro-4-(2-methyl-3-(5-methyl-1H-indazol-4-yl)-1H-pyrrolo[2,3-b]pyridin-1-yl)phenyl)acrylamide, reference compound] | ~5000 | 500 | 
2 | C=CC(=O)N1CC2(CC(n3nc(-c4ccncc4C)c(-c4c(Cl)c(C)cc5[nH]ncc45)c3C)C2)C1 (single isomer, unassigned) [Example 49a, 1-(6-(4-(5-chloro-6-methyl-1H-indazol-4-yl)-5-methyl-3-(3-methylpyridin-4-yl)-1H-pyrazol-1-yl)-2-azaspiro[3.3]heptan-2-yl)prop-2-en-1-one] |  |  | 227
3 | C=CC(=O)N1CC2(CC(n3nc(-c4ccc5c(c4)CCN5C(C)=O)c(-c4c(Cl)c(C)cc5[nH]ncc45)c3C)C2)C1 (single isomer, unassigned) [Example 22a] |  |  | 23
4 | C=CC(=O)N1CC2(CC(n3nc(-c4ccc5[nH]ncc5c4)c(-c4c(Cl)c(C)cc5[nH]ncc45)c3C)C2)C1 (single isomer, unassigned) [Example 12a] |  |  | 24
5 | C=CC(=O)N1CC2(CC(n3nc(-c4ccc5c(cnn5CCN5CCOCC5)c4)c(-c4c(Cl)c(C)cc5[nH]ncc45)c3C)C2)C1 (single isomer, unassigned) [Example 17b] |  |  | 14600
6 | C=CC(=O)N1CC2(CC(n3nc(-c4cnc5c(cnn5C)c4)c(-c4c(Cl)c(C)cc5[nH]ncc45)c3C)C2)C1 (single isomer, unassigned) [Example 37b] |  |  | > 50000
